In paper PMC12153356, “An antisense oligomer conjugate with unpredicted bactericidal activity against Fusobacterium nucleatum” (mBio, 2025):

How the values were obtained:
Experiment in all cases: Growth inhibition assay
[1] = test system: F. nucleatum subsp. animalis 7_1 (FNA); format: cell-based, Fusobacterium nucleatum subsp. animalis 7_1; details: 10 µM, MHB, 1 × 10^5 CFU/mL input, three replicates
Excerpt: (§1) The following fusobacterial strains were used in this study: Fusobacterium nucleatum subsp. nucleatum ATCC 23726 (FNN23) acquired from the American Type Culture Collection (ATCC), F. nucleatum subsp. nucleatum ATCC 25586 (FNN25), F. nucleatum subsp. vincentii ATCC 49256 (FNV), and F. nucleatum subsp. polymorphum ATCC 10953 (FNP) acquired from the German Collection of Microorganisms and Cell Culture (DSMZ), F. nucleatum subsp. animalis 7_1 (FNA) and F. periodonticum 2_1_31 (FPE) both received as a kind gift from E. Allen-Vercoe (University of Guelph, Canada). All strains were routinely grown at 37°C in 80:10:10 (N2:H2:CO2) anaerobic conditions on 2% agar supplemented BHI plates (BHI, 1% [wt:vol] dried yeast extract, 1% [vol:vol] 50% sterile-filtered glucose solution, 5 µg/mL of hemin; 1% [vol:vol] fetal bovine serum) from frozen 20% glycerol stocks kept at −80°C. For liquid growth, the strains were cultured in Columbia broth (ColB; BD Difco). Precultures were prepared 24 h before inoculating the working culture at a 1:50 dilution in fresh ColB until OD600 0.5 was reached. Cultures were then diluted in non-cation adjusted Mueller-Hinton Broth (MHB, BD Difco) to the desired CFU/mL number. P. gingivalis (DSM 20709) was purchased from DSMZ and grown at 37°C in anaerobic conditions as mentioned above on 2% agar supplemented BHI+ plates (BHI, 1% [wt:vol] dried yeast extract, 1% [vol:vol] 50% sterile filtered glucose solution, 5 µg/ml of hemin; 10% [vol:vol] fetal bovine serum; and 1 µg/mL vitamin K3) for 4 days. […]
(§2) To determine the MIC value, broth microdilutions were performed according to the standard protocol with some modifications ([119]). […] Bacterial growth was monitored by measuring OD600 every 20 min with constant shaking in a plate reader (Biotek) under the normal atmospheric environment or positioned in the anaerobic chamber with double orbital shaking every 20 min prior to each measurement with 237 cpm at 37°C for 120 h.

[2] = test system: F. nucleatum subsp. vincentii ATCC 49256 (FNV); format: cell-based, Fusobacterium nucleatum subsp. vincentii ATCC 49256; details: 10 µM, MHB, 1 × 10^5 CFU/mL input, three replicates
Excerpt: (§3) The following fusobacterial strains were used in this study: Fusobacterium nucleatum subsp. nucleatum ATCC 23726 (FNN23) acquired from the American Type Culture Collection (ATCC), F. nucleatum subsp. nucleatum ATCC 25586 (FNN25), F. nucleatum subsp. vincentii ATCC 49256 (FNV), and F. nucleatum subsp. polymorphum ATCC 10953 (FNP) acquired from the German Collection of Microorganisms and Cell Culture (DSMZ), F. nucleatum subsp. animalis 7_1 (FNA) and F. periodonticum 2_1_31 (FPE) both received as a kind gift from E. Allen-Vercoe (University of Guelph, Canada). All strains were routinely grown at 37°C in 80:10:10 (N2:H2:CO2) anaerobic conditions on 2% agar supplemented BHI plates (BHI, 1% [wt:vol] dried yeast extract, 1% [vol:vol] 50% sterile-filtered glucose solution, 5 µg/mL of hemin; 1% [vol:vol] fetal bovine serum) from frozen 20% glycerol stocks kept at −80°C. For liquid growth, the strains were cultured in Columbia broth (ColB; BD Difco). […]
as §2

[3] = test system: P. gingivalis (DSM 20709); format: cell-based, Porphyromonas gingivalis; details: 10 µM, MHB, 1 × 10^5 CFU/mL input, anaerobic, OD600 for 144 h
Excerpt: as §3, with “Difco). Precultures were prepared 24 h before inoculating the working culture at a 1:50 dilution in fresh ColB until OD600 0.5 was reached.” for “Difco).”
To determine the MIC value, broth microdilutions were performed according to the standard protocol with some modifications ([119]). […] […] a plate reader (Biotek) under the normal atmospheric environment or positioned in the anaerobic chamber with double orbital […]

[4] = test system: F. periodonticum 2_1_31 (FPE); format: cell-based, Fusobacterium periodonticum 2_1_31; details: 10 µM, MHB, 1 × 10^5 CFU/mL input, three replicates
Excerpt: as §1, §2

E. coli K12 MG1655 = format: cell-based, Escherichia coli K12; details: 10 µM, MHB, 1 × 10^5 CFU/mL input, aerobic, 24 h
Method: Aerobic bacterial culture was conducted with E. coli K12 MG1655 (provided by D. Lee), E. coli Nissle 1917, and S. enterica serovar Typhimurium SL1344 (provided by D. Bumann, Biocenter Basel, Switzerland). The strains were streaked on lysogeny broth plates, incubated o.n. at 37°C and cultured in non-cation-adjusted MHB with aeration at 37°C and 220 rpm constant shaking.
To determine the MIC value, broth microdilutions were performed according to the standard protocol with some modifications ([119]). An overnight bacterial culture was diluted in a fresh ColB medium and grown to OD600 0.5 (mid-exponential phase). Fusobacteria were then diluted 1:2,500 or 1:250 in fresh MHB to obtain 1 × 10^5 CFU/mL or 1 × 10^6 CFU/mL as indicated. To determine the growth inhibition of P. gingivalis, an o.n. culture grown in BHI+ was diluted 1:1,500 in MHB to obtain 1 × 10^5 CFU/mL. E. coli K12, E. coli Nissle 1917, and S. enterica o.n. cultures grown in MHB were diluted 1:1,800 in fresh MHB to obtain 1 × 10^5 CFU/mL. […] Bacterial growth was monitored by measuring OD600 every 20 min with constant shaking in a plate reader (Biotek) under the normal atmospheric environment or positioned in the anaerobic chamber with double orbital shaking every 20 min prior to each measurement with 237 cpm at 37°C for 120 h.

Substance | Growth inhibition of FNA [1] | Growth inhibition of FNV [2] | Growth inhibition of P. gingivalis [3] | Growth inhibition of FPE [4] | Growth inhibition of E. coli K12 (E. coli K12 MG1655)
(RXR)4XB-GACATAATTGT [FUS79, non-targeting (RXR)4XB-PNA 11-mer control, (RXR)4XB-…] | inhibited the growth | inhibited the growth of all strains, except FNV | no growth inhibition | inhibited the growth | no growth inhibition
RXRRXRRXRRXRXB [PNAscr] | growth retardation compared with the water control | growth retardation compared with the water control | no growth inhibition | growth retardation compared with the water control | no growth inhibition
